We go through 24 molecules from ChEMBL document CHEMBL1138590, “Discovery of novel dihydro-9,10-ethano-anthracene carboxamides as glucocorticoid receptor modulators” (Bioorg Med Chem Lett, 2009).

In assay [1] the target is T1, Glucocorticoid receptor (Homo sapiens, UniProt P04150).
T1 sequence (P04150 whole entry): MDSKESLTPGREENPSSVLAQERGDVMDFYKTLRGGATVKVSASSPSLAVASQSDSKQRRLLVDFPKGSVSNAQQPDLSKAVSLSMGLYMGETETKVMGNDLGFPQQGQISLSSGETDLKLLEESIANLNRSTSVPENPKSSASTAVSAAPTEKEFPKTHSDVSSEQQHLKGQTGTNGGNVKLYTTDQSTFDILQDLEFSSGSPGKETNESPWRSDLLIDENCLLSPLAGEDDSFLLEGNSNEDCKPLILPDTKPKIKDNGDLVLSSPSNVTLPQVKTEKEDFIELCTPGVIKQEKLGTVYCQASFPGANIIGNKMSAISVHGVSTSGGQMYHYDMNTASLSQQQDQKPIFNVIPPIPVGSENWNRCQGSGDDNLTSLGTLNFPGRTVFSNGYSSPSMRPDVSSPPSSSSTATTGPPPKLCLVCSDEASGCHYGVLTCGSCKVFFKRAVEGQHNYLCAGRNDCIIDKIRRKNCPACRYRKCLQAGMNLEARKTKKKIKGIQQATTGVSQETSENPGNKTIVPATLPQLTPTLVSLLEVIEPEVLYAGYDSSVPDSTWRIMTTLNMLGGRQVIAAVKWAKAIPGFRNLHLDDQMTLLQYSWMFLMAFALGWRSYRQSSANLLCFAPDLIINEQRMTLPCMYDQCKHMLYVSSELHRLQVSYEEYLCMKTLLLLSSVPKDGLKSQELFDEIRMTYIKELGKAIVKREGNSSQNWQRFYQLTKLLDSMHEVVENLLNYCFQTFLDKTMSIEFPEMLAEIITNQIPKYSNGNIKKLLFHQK
As to the kind of experiment: Displacement of FITC-dexamethasone from human recombinant glucocorticoid receptor alpha by fluorescence polarization assay.

Assay [2] addresses T1, Glucocorticoid receptor. As to the kind of experiment: Transrepression activity at GR in PMA-stimulated human A549 cells assessed as inhibition of AP1 response element-induced luciferase reporter gene activity. The format is cell-based.
The target in assay [3] is T1, Glucocorticoid receptor. Nature of the assay: Transrepression activity at GR in IL-1-beta-stimulated human A549 cells assessed as inhibition of NF-kappaB-dependent E-selectin transcription by luciferase reporter gene assay. It counts as cell-based.
Assay [4] has as its target T1, Glucocorticoid receptor. As to the kind of experiment: Agonist activity at GR ligand binding domain expressed in human NP1 cells assessed as glucocorticoid response element transactivation by GAL4 luciferase reporter gene assay. It counts as cell-based.
Assay [5] has as its target T2, Mineralocorticoid receptor (Homo sapiens) (UniProt P08235).
T2 sequence (whole entry): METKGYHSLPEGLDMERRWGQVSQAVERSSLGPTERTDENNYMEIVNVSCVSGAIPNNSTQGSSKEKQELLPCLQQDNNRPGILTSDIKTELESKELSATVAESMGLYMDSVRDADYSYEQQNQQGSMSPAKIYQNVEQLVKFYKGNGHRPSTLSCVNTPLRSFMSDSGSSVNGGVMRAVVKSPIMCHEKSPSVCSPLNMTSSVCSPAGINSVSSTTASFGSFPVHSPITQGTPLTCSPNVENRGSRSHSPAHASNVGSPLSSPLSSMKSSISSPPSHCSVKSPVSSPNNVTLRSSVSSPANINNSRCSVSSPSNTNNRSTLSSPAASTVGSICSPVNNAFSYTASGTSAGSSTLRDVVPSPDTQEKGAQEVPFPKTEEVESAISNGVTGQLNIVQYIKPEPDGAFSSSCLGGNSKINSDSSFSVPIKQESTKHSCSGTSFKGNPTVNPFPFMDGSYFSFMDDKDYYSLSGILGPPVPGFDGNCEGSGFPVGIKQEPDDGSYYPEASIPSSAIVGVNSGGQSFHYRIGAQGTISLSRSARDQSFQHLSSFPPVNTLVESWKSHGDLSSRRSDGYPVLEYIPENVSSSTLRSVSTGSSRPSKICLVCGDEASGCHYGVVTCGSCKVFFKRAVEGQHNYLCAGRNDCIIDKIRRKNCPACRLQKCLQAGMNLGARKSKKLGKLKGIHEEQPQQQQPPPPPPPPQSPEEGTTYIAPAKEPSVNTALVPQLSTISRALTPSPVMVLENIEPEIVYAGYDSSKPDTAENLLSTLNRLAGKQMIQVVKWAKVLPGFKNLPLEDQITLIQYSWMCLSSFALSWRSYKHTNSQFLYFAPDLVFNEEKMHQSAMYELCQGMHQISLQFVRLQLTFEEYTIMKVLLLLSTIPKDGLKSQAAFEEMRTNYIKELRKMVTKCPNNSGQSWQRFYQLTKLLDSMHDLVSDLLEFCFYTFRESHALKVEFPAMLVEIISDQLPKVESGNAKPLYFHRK
Nature of the assay: Antagonist activity at mineralocorticoid receptor in human A549 cells assessed as inhibition of 1.25 nM aldosterone-induced effect at 0.1 uM. The format is functional, cell-based.

On to `Cc1nc(NC(=O)C2(C)CC3c4ccccc4C2c2ccccc23)sc1C` (stereo not given), for which the Ki on Glucocorticoid receptor [1] turned out to be 22.6 nM. For the same molecule, the EC50 at Glucocorticoid receptor [2] is 923 nM.
`C[C@]1(C(=O)Nc2nccs2)CC2(C#N)c3ccccc3C1c1ccccc12`: at Glucocorticoid receptor [1], the Ki was determined as 37.8 nM. Besides, the values for the EC50 at Glucocorticoid receptor [2], at Glucocorticoid receptor [3] and on Glucocorticoid receptor [4] were 837 nM, above 5000 nM and above 10 µM, respectively.
As for `CC1(C(=O)Nc2nncs2)CC2c3ccccc3C1c1ccccc12` (stereo not given), the Ki at Glucocorticoid receptor [1] came to 5.4 nM. For the same molecule, the EC50 at Glucocorticoid receptor [2] worked out at 295 nM.
As for `CC1(C(=O)Nc2nccs2)CC2c3ccccc3C1([N+](=O)[O-])c1ccccc12` (stereo not given), the EC50 on Glucocorticoid receptor [2] is 1160 nM; on Glucocorticoid receptor [3] it was above 5000 nM; on Glucocorticoid receptor [4], above 10 µM.
Consider `CC1(C(=O)Nc2nccs2)CC2([N+](=O)[O-])c3ccccc3C1c1ccccc12` (stereo not given), for which the EC50 at Glucocorticoid receptor [2] is 1070 nM; on Glucocorticoid receptor [3], above 5000 nM; at Glucocorticoid receptor [4], above 10 µM.
With `O=C(Nc1nccs1)C1(CCO)CC2c3ccccc3C1c1ccccc12` (stereo not given), at Glucocorticoid receptor [1], the Ki is 303 nM. Further, the EC50 at Glucocorticoid receptor [2] was above 5000 nM.
In the case of `CC1(C(=O)Nc2nccs2)CC2(Br)c3ccccc3C1c1ccccc12` (stereo not given), the EC50 at Glucocorticoid receptor [2] came out at 119 nM; on Glucocorticoid receptor [3], 9.9 nM; on Glucocorticoid receptor [4], 0.175 µM.
On the same counts, the results for `CC12CC(C)(C(=O)Nc3nncs3)C(c3ccccc31)c1ccccc12` (stereo in doubt; 18) are 16.9 nM, 5.2 nM and above 10 µM.
In the case of `CC1(C(=O)Nc2nccs2)CC2c3ccccc3C1(C#N)c1ccccc12` (stereo not given), the concentration giving a half-maximal response (EC50) was 874 nM at Glucocorticoid receptor [2], 678 nM at Glucocorticoid receptor [3] and above 10 µM at Glucocorticoid receptor [4].
Turning to `CC12CC(C)(C(=O)Nc3nccs3)C(c3ccccc31)c1ccccc12` (single isomer, unassigned; isomer B), on Glucocorticoid receptor [1], the Ki is 67.8 nM. The values for the EC50 at Glucocorticoid receptor [2], at Glucocorticoid receptor [3] and on Glucocorticoid receptor [4] were 800 nM, above 5000 nM and above 10 µM, respectively.
As for `CC1(C(=O)Nc2nccs2)CC2(Cl)c3ccccc3C1c1ccccc12` (stereo not given), the EC50 was determined as 229 nM at Glucocorticoid receptor [2], 12.3 nM at Glucocorticoid receptor [3] and 0.322 µM on Glucocorticoid receptor [4].
In the case of `Cc1cnc(NC(=O)C2(C)CC3c4ccccc4C2c2ccccc23)s1` (stereo in doubt; 3), the Ki on Glucocorticoid receptor [1] came to 12.7 nM. Also, on Glucocorticoid receptor [2], the EC50 worked out at 610 nM.
On the same counts, the results for `Cc1csc(NC(=O)C2(C)CC3c4ccccc4C2c2ccccc23)n1` (stereo not given) are 8.7 nM and above 5000 nM.
Take `CC12CC(C)(C(=O)Nc3nncs3)C(c3ccccc31)c1ccccc12` (stereo in doubt; 18b): the Ki on Glucocorticoid receptor [1] stood at 49.7 nM. Moreover, the concentration for a half-maximal effect (EC50) at Glucocorticoid receptor [2] is 3830 nM; on Glucocorticoid receptor [3], 152 nM; on Glucocorticoid receptor [4] it was above 2.5 µM.
For the molecule `CC12CC(C)(C(=O)Nc3nncs3)C(c3ccccc31)c1ccccc12` (single isomer, unassigned; isomer A), the inhibition in assay [5] is 53%.
Regarding `CC12CC(C)(C(=O)Nc3nccs3)C(c3ccccc31)c1ccccc12` (stereo in doubt; 17), the EC50 on Glucocorticoid receptor [2] is 14.7 nM; at Glucocorticoid receptor [3], 8.3 nM; at Glucocorticoid receptor [4] it was 0.121 µM.
With `CC1(C(=O)Nc2nccs2)CC2(C#N)c3ccccc3C1c1ccccc12` (stereo not given), the figures for the EC50 at Glucocorticoid receptor [2], at Glucocorticoid receptor [3] and at Glucocorticoid receptor [4] were 331 nM, 426 nM and above 10 µM, respectively.
For the molecule `CCC1(C(=O)Nc2nccs2)CC2c3ccccc3C1c1ccccc12` (stereo not given), the Ki at Glucocorticoid receptor [1] amounted to 3.9 nM. For the same molecule, at Glucocorticoid receptor [2], the 50% effective concentration (EC50) is above 2500 nM.
For `C[C@]1(C(=O)Nc2nccs2)CC2c3ccccc3C1c1ccccc12`, in that order: 26.2 nM and 544 nM.
On the same counts, the results for `CN(C(=O)C1(C)CC2c3ccccc3C1c1ccccc12)c1nccs1` (stereo not given) are 82.5 nM and 1240 nM.
Consider `CC12CC(C)(C(=O)Nc3nccs3)C(c3ccccc31)c1ccccc12` (stereo in doubt; 17a), for which the inhibition in assay [5] is 49%.
Regarding `Cc1cnc(NC(=O)C2(C)CC3c4ccccc4C2c2ccccc23)s1` (single isomer, unassigned; isomer B), at Glucocorticoid receptor [1], the Ki stood at 187 nM. Also, the EC50 on Glucocorticoid receptor [2] worked out at 972 nM.
On the same counts, the results for `CC1(C(=O)Nc2ncc[nH]2)CC2c3ccccc3C1c1ccccc12` (stereo not given) are 92.6 nM and above 5000 nM.
For `CC1(C(=O)Nc2ccc([N+](=O)[O-])cc2O)CC2c3ccccc3C1c1ccccc12` (stereo not given), in that order: 158 nM and above 5000 nM.
